# The source made the active and inactive calls. The calls are words filed in the database; no cut-off is given here.
# How the values were obtained:
# HMC-1.2 = assay: Induction of apoptosis in human HMC-1.2 cells by flow cytometry; assay type: functional, cell-based
# [1] = Inhibition of IgE-dependent histamine release in normal human blood basophils; assay type: functional, tissue-based; details: Basophil
# cells = assay type: functional, tissue-based; details: Homo sapiens, Mast cell
# Description: Growth inhibition of human neoplastic mast cells incubated for 24 to 48 hrs
Structure (SMILES),Activity (HMC-1.2),IC50 [1] [nM],IC50 (cells) [nM]
CO[C@@H]1[C@H](N(C)C(=O)c2ccccc2)C[C@H]2O[C@]1(C)n1c3ccccc3c3c4c(c5c6ccccc6n2c5c31)C(=O)NC4,Active,–,–
CO[C@@H]1[C@H](N(C)C(=O)c2ccccc2)C[C@H]2O[C@]1(C)n1c3ccccc3c3c4c(c5c6ccccc6n2c5c31)C(=O)NC4O (stereo partly specified),inactive,10,–
CN(C(=O)c1ccccc1)[C@@H]1C[C@H]2O[C@@](C)([C@@H]1O)n1c3ccccc3c3c4c(c5c6ccccc6n2c5c31)C(=O)NC4,Active,10,50

# — ChEMBL document CHEMBL4725462, “Biotransformation: Impact and Application of Metabolism in Drug Discovery” (ACS Med Chem Lett, 2020)
